Source: article PMC3117839, “Efficacy Study of Novel Diamidine Compounds in a Trypanosoma evansi Goat Model” (PLoS ONE, 2011)
“Also recorded” adds a separate entry of the source. Read-outs that look alike come from different tables or passages of the source.

Columns and labels:
[1] = Plasma drug levels and pharmacokinetic parameters in T. evansi infected goats (HPLC/MS-MS); type: in vivo, goat
Experimental: In addition, blood samples were taken shortly before each compound injection was applied, to determine the trough levels. All samples were centrifuged at 3000 g for ten minutes. Subsequently, the plasma was removed, placed into sterile polypropylene cryotubes and stored away from light at −80°C. Mass spectrometry analysis was performed on all plasma samples using 25 µl aliquots. Calibrators were prepared separately for each analyte. Stock solutions of diminazene, DB 75, DB 867 and DB1192 were prepared in water. Curves were then prepared and analysed in duplicate, at both the beginning and the end of the analytical run. Concentrations of diminazene, DB 75, DB 867 and DB 1192 were determined by Liquid Chromatography/Triple Quadrupole Mass Spectrometry (HPLC/MS-MS). The pharmacokinetic parameters were determined using Microsoft® Excel software, with a functional set of add-ins applied, together with a graphical programme (GraphPad Prism 5, GraphPad Software Inc, USA). The compound plasma levels can be seen in Figure 1 for a) the standard drug, diminazene, b) DB 1192, c) DB 75 and d) DB 867. The plasma samples taken were analysed by HPLC/MS-MS to determine the drug concentrations (in ng/ml). From these values, the averages from the experimental goats in each group were calculated and drug concentration versus time curves were plotted with a line of best fit applied, corresponding to either the high or low compound dose tested.

T. evansi [2] = experiment: Curative efficacy in T. evansi experimentally infected goats (five month follow up, overall outcome); type: in vivo, Trypanosoma evansi (Canaries (Rubio) strain) in goats
Experimental: Various diagnostic tests were used to evaluate the curative efficacy of the compounds, over a five month follow up period. The haematocrit centrifugation technique, was utilised as the standard parasitological test. The serological CATT/T. evansi test was performed to determine the presence or absence of antibodies. As a validating molecular based technique, a mini-exon 18S ribosomal PCR method designed for the detection of parasite DNA was also applied.
Fresh camel blood (400 µl) was collected from the jugular vein of a camel and 200 µl volumes inoculated (i.p.) into two mice. Once a parasitaemia had established, blood was collected via cardiac puncture and mixed with phosphate buffered saline with glucose (PSG) to provide the T. evansi suspension used for experimental goat infection. Thereafter, all 25 goats were experimentally infected intravenously (i.v.), with 10^6 parasites/goat.
Goats were divided into 8 groups, where group 1 contained four goats whilst group's 2 to 8 each contained three goats. […] All test compounds were administered intra-muscularly with four applications, on days 32, 34, 36 and 38 post-infection. Thereafter, follow up diagnostic methods were carried out for five months post treatment.

T. evansi [3] = tested on: T. evansi; parameters: method as in PMID 20149544; conditions: cited from earlier work; for in vitro IC50: 72 hour assay against T. evansi; for estimated MIC (minimal inhibitory concentration): estimated at least four times the IC50
[4] = 1.25 mg/kg x4, 72 hours after final injection
[5] = 2.5 mg/kg x4, 72 hours after final injection
[6] = goat plasma, four applications of 1.25 mg/kg i.m., average plasma levels
[7] = goat plasma, four applications of 2.5 mg/kg i.m., average plasma levels
[8] = 1.25 mg/kg i.m. x4, five month follow up
[9] = 2.5 mg/kg i.m. x4, five month follow up
[10] = 2.5 mg/kg x4, 192 hours after final injection

| concentration in goat plasma [1, 4] | concentration in goat plasma [1, 5] | AUC [1, 6] | Cmax [1, 6] | MRT [1, 6] | T1/2 [1, 6] | AUC [1, 7] | Cmax [1, 7] | MRT [1, 7] | T1/2 [1, 7] | Compound | in vitro IC50 (T. evansi [3]) | estimated MIC (minimal inhibitory concentration) (T. evansi [3]) | curative efficacy (T. evansi [2]; [8]) | curative efficacy (T. evansi [2]; [9]) | concentration in goat plasma [1, 10] | also measured |
| --- | --- | --- | --- | --- | --- | --- | --- | --- | --- | --- | --- | --- | --- | --- | --- | --- |
|  |  |  |  |  |  |  |  |  |  | N=C(N)c1ccc(/N=N/Nc2ccc(C(=N)N)cc2)cc1 [Diminazene, Diminazene aceturate, reference compound] | 12.5 ng/mL | 50 ng/mL |  |  |  | half-life ([1]; Canarian, im, goat plasma, four applications of 5 mg/kg i.m., average plasma levels): 59.1 h; AUC ([1]; Canarian, im, goat plasma, four applications of 5 mg/kg i.m., average plasma levels, read-out: AUC): 194 µg·h/mL; Cmax ([1]; Canarian, im, goat plasma, four applications of 5 mg/kg i.m., average plasma levels, read-out: Cmax): ≥ 8640 ng/mL; MRT ([1]; Canarian, im, goat plasma, four applications of 5 mg/kg i.m., average plasma levels, read-out: MRT): 70.7 h; concentration at 72 h ([1]; goat, plasma, intramuscular, 5 mg/kg x4, 72 hours after the end of treatment): 1110 ng/mL; concentration at 192 h ([1]; goat, plasma, intramuscular, 5 mg/kg x4, 192 hours after final injection): 568 ng/mL; curative efficacy (T. evansi [2]; 5 mg/kg i.m. x4, five month follow up): Complete curative efficacy |
| above 1850 ng/ml | above 1850 ng/ml | 381604 | ≥3663 ng/mL | 87.9 h | 202.5 h | 360895 | ≥3310 ng/mL | 90.0 h | 221.4 h | N=C(N)c1ccc(-c2ccc(-c3ccc(C(=N)N)nc3)o2)cc1 [DB 867] | 1.7 ng/mL | 6.8 ng/mL | a relapse was seen during the final month of the follow up period | Complete curative efficacy; also recorded: cured; also recorded: curative efficacy was seen |  | time to relapse post treatment (T. evansi [2]; 1.25 mg/kg i.m. x4): 4.5 months |
| 2223 ng/mL | 1923 ng/mL | 394305 | ≥3115 ng/mL | 89.5 h | 279.3 h | 358215 | ≥2530 ng/mL | 93.4 h | 473.7 h | N=C(N)c1ccc(-c2ccc(-c3ccc(C(=N)N)cc3)o2)cc1 [DB 75] | 2.3 ng/mL | 9.2 ng/mL | Complete cure; also recorded: complete curative efficacy | Complete curative efficacy | above 1500 ng/ml | concentration in goat plasma ([1]; 1.25 mg/kg x4, 192 hours after final injection): above 1500 ng/ml |

| Compound | concentration in goat plasma [1, 4] | concentration in goat plasma [1, 5] | AUC [1, 6] | Cmax [1, 6] | MRT [1, 6] | T1/2 [1, 6] | AUC [1, 7] | Cmax [1, 7] | MRT [1, 7] | T1/2 [1, 7] | in vitro IC50 (T. evansi [3]) | estimated MIC (minimal inhibitory concentration) (T. evansi [3]) | curative efficacy (T. evansi [2]; [8]) | curative efficacy (T. evansi [2]; [9]) | concentration in goat plasma [1, 10] | also measured |
| --- | --- | --- | --- | --- | --- | --- | --- | --- | --- | --- | --- | --- | --- | --- | --- | --- |
| Cc1cc(C(=N)N)ccc1-c1cc2cc(C(=N)N)ccc2[nH]1 [DB 1192] | 18 ng/mL | 32 ng/mL | 4809 | ≥836 ng/mL | 52.3 h | 37.0 h | 9861 | ≥1563 ng/mL | 38.4 h | 30.5 h | 10.5 ng/mL | around 40 ng/ml | incapable of curing goats; also recorded: not effective | incapable of curing goats; also recorded: not effective | 10 ng/mL | time until plasma level fell below the therapeutic threshold ([1]; both doses (2.5 and 1.25 mg/kg), post treatment): ≤ 24 h |
